According to patent US4285953A, “Inhibition of biosynthesis of triglycerides by certain N-β-phenethyl-N-pyridylalkylamines” (Shell Oil Company, priority 1980, dated 1981):

Test system: enzyme prepared from pig adipose tissue (synthesis of triglycerides)
Assay: Inhibition of triglyceride synthesis by enzyme preparation from pig adipose tissue (14C-glycerol-3-phosphate incorporation)
Format: biochemical
Details: test compound 1000 micrograms per milliliter, 5% DMSO, 8 minutes at 37° C; compared to controls without test compound; average of two animals
Protocol: An enzyme was prepared by homogenizing one gram of slices from pig adipose tissue, each slice being approximately 0.3 mm thick, in onemilliliter portions of a liquid medium (Liquid A). The homogenate then was centrifuged (10.000 g×15 minutes), and the supernatant phase (the enzyme) was poured through cheesecloth to remove fat that had risen to the top of the centrifuge tubes.
Liquid A had the following composition (in water):
0.15 M potassium chloride, 1 mM ethylenediaminetetracetic acid, […] Hepes (N-2-hydroxyethylpiperazine-N'-2-ethanesulfonic acid), 1 mM DTT (dithiothreitol), pH=7.0.
A solution of the test compound (Liquid B) was prepared: 10 milligrams of test compound plus 0.5 milliliter dimethylsulfoxide (DMSO) plus 1.83 milliliters of glass-distilled water.
A premix (Liquid C) was freshly prepared before each test, from the following components: […]
0.25 milliliter of enzyme then was added. […] Ten milliliters of a 2:1 (v/v) mixture of toluene and Triton X-100 containing 0.27% New England Nuclear Omnifluor was added, and the radioactivity was determined in a liquid scintillation counter. […]
The percent inhibition by the test compound compared to the controls (no test compound) was determined.

Row | SMILES | Percent Inhibition
1 | Cc1ccc(CC(C)NCCCC(c2ccccc2)c2ccccn2)cc1.O=C(O)/C=C\C(=O)O (centres unmarked) [Compound 1, N-(1-methyl-2-(4-methylphenyl)ethyl)-delta-phenyl-2-pyridinebutanamine, maleic acid salt] | 97
2 | CC(C)(Cc1ccc(Cl)cc1)NCCCC(c1ccccc1)c1ccccn1.O=C(O)/C=C\C(=O)O (centres unmarked) [Compound 2, N-(2-(4-chlorophenyl)-1,1-dimethylethyl)-delta-phenyl-2-pyridinebutanamine, maleic acid salt] | 93
